Results from patent EP3939664A1 (priority 2020, dated 2022).

What was measured:
[1] = tested on: SARS-CoV-2; test: Cell monolayer protection assay (crystal violet staining of virus-induced cell death); assay type: cell-based, SARS-CoV-2 stock strain NL/2020; set-up: PC Max: unit: uM; details: for minimal effective concentration: Severe acute respiratory syndrome coronavirus 2, Vero C1008, minimum compound concentration protecting Vero-E6 cell monolayer from virus induced cell death, read-out: PC Min; for minimal effective concentration / PC Max: 72 hours, dilutions from 50µM to 780nM tested; for PC Max: maximum compound concentration protecting Vero-E6 cell monolayer from virus induced cell death
[2] = tested on: hCoV-229E-GFP virus (Human coronavirus 229E expressing Green Fluorescent Protein); test: microbe, parasite or virus in culture; assay type: cell-based; details: Huh7-Lunet#3 cells, 72 hours at 33°C, read-out: reduction of hCoV-229E-GFP propagation
[3] = in vitro; details: human, huh7-lunet#3 cells
[4] = tested on: SARS-CoV-2; test: Relative viral RNA content by real time qPCR; assay type: cell-based; details: for activity at 15 µM: Severe acute respiratory syndrome coronavirus 2, Vero C1008, 15µM compound, viral RNA by qPCR, relative to cells treated only with vehicle (DMSO)

| SMILES | minimal effective concentration [1] | PC Max [1] | inhibition at 10 µM [2] | viability at 72 h, 10 µM [3] | viral RNA levels by qPCR (result in words) [4] | activity at 15 µM [4] | protective activity against SARS-CoV-2 (result in words) ([1]; Figure 1, 0.78-50µM) |
| --- | --- | --- | --- | --- | --- | --- | --- |
| CCCCc1ccc(-c2ccc3nc(-c4ccc(OC)cc4)cc(C(=O)O)c3c2)cc1 [Example 3, 6-(4-butylphenyl)-2-(4-methoxyphenyl)quinoline-4-carboxylic acid] | 50 µM | 50 |  |  |  |  |  |
| COc1ccc(-c2cc(C(=O)O)c3cc(-c4ccc(C(C)(C)C)cc4)ccc3n2)cc1 [Example 4, 6-(4-(tert-butyl)phenyl)-2-(4-methoxyphenyl)quinoline-4-carboxylic acid] | 50 µM | 50 | 74% | 107% |  |  |  |
| CCc1ccc(-c2ccc3nc(-c4ccccc4)cc(C(=O)O)c3c2)cc1 [Example 12, 6-(4-ethylphenyl)-2-phenylquinoline-4-carboxylic acid] | 50 µM | 50 |  |  |  |  |  |
| CC(C)(C)c1ccc(-c2ccc3nc(-c4ccccc4)cc(C(=O)O)c3c2)cc1 [Example 14, 6-(4-(tert-butyl)phenyl)-2-phenylquinoline-4-carboxylic acid] | 50 µM | 50 |  |  |  |  |  |
| O=C(O)c1cc(-c2ccccc2)nc2ccc(-c3ccc(Cl)c(Cl)c3)cc12 [Example 16, 6-(3,4-dichlorophenyl)-2-phenylquinoline-4-carboxylic acid] | 50 µM | 50 |  |  |  |  |  |
| CCc1ccc(-c2ccc(-c3cc(C(=O)O)c4ccccc4n3)cc2)cc1 [Example 19, 2-(4'-ethyl-[1,1'-biphenyl]-4-yl)quinoline-4-carboxylic acid] | 50 µM | 50 |  |  |  |  |  |
| CCCCc1ccc(-c2ccc(-c3cc(C(=O)O)c4ccccc4n3)cc2)cc1 [Example 20, 2-(4'-butyl-[1,1'-biphenyl]-4-yl)quinoline-4-carboxylic acid] | 12.5 µM | 50 |  |  | virtually undetectable levels | 0.001% |  |
| CC(C)(C)c1ccc(-c2ccc(-c3cc(C(=O)O)c4ccccc4n3)cc2)cc1 [Example 21, 2-(4'-(tert-butyl)-[1,1'-biphenyl]-4-yl)quinoline-4-carboxylic acid] | 3.12 µM | 50 |  |  | virtually undetectable levels | 1e-05% | comparable efficacy to remdesivir |
| O=C(O)c1cc(-c2ccc(-c3ccc(Cl)c(Cl)c3)cc2)nc2ccccc12 [Example 23, 2-(3',4'-dichloro-[1,1'-biphenyl]-4-yl)quinoline-4-carboxylic acid] | 50 µM | 50 |  |  |  |  |  |
| O=C(O)c1cc(-c2ccc(-c3cccc(OC(F)(F)F)c3)cc2)nc2ccccc12 [Example 24, 2-(3'-(trifluoromethoxy)-[1,1'-biphenyl]-4-yl)quinoline-4-carboxylic acid] | 50 µM | 50 |  |  |  |  |  |
| CCCCc1ccc(-c2cccc(-c3cc(C(=O)O)c4ccccc4n3)c2)cc1 [Example 27, 2-(4'-butyl-[1,1'-biphenyl]-3-yl)quinoline-4-carboxylic acid] | 25 µM | 50 |  |  |  |  |  |
| CC(C)(C)c1ccc(-c2cccc(-c3cc(C(=O)O)c4ccccc4n3)c2)cc1 [Example 28, 2-(4'-(tert-butyl)-[1,1'-biphenyl]-3-yl)quinoline-4-carboxylic acid] | 25 µM | 50 |  |  |  |  |  |
| CCCCc1ccc(-c2ccc3c(C(=O)O)cc(-c4ccc(OC)cc4)nc3c2)cc1 [Example 33, 7-(4-butylphenyl)-2-(4-methoxyphenyl)quinoline-4-carboxylic acid] | 50 µM | 50 |  |  |  |  |  |
| COc1ccc(-c2cc(C(=O)O)c3ccc(-c4ccc(C(C)(C)C)cc4)cc3n2)cc1 [Example 34, 7-(4-(tert-butyl)phenyl)-2-(4-methoxyphenyl)quinoline-4-carboxylic acid] | 50 µM | 50 |  |  |  |  |  |
| CCc1ccc(-c2cccc3c(C(=O)O)cc(-c4ccc(OC)cc4)nc23)cc1 [Example 42, 8-(4-ethylphenyl)-2-(4-methoxyphenyl)quinoline-4-carboxylic acid] | 50 µM | 50 |  |  |  |  |  |
| COc1ccc(-c2cc(C(=O)O)c3cccc(-c4ccc(C(C)(C)C)cc4)c3n2)cc1 [Example 44, 8-(4-(tert-butyl)phenyl)-2-(4-methoxyphenyl)quinoline-4-carboxylic acid] | 12.5 µM | 50 |  |  | virtually undetectable levels | 0.01% |  |
| COc1ccc(-c2cc(C(=O)O)c3cccc(-c4ccc(Cl)c(Cl)c4)c3n2)cc1 [Example 46, 8-(3,4-dichlorophenyl)-2-(4-methoxyphenyl)quinoline-4-carboxylic acid] | 50 µM | 50 |  |  |  |  |  |
| COc1ccc(-c2cc(C(=O)O)c3cccc(-c4cccc(OC(F)(F)F)c4)c3n2)cc1 [Example 47, 2-(4-methoxyphenyl)-8-(3-(trifluoromethoxy)phenyl)quinoline-4-carboxylic acid] | 50 µM | 50 |  |  |  |  |  |
| CCCOc1ccc(-c2cccc3c(C(=O)O)cc(-c4ccc(OC)cc4)nc23)cc1 [Example 48, 2-(4-methoxyphenyl)-8-(4-propoxyphenyl)quinoline-4-carboxylic acid] | 50 µM | 50 |  |  |  |  |  |
| CCC(CC)COC(=O)[C@H](C)N[P@](=O)(OC[C@H]1O[C@@](C#N)(c2ccc3c(N)ncnn23)[C@H](O)[C@@H]1O)Oc1ccccc1 [Remdesevir, remdesivir, reference compound] | 0.78 µM | 50 |  |  |  |  |  |
